PubChem BioAssay AID278 (DTP/NCI, 2004)
Results filed as inconclusive are left out.

Test system: nude mice, A549 intrarenal xenograft, tumor weight change
Assay: NCI In Vivo Anticancer Drug Screen. Data for tumor model A549 Human Adenocarcinoma of Lung with characteristics of Type II Alveolar Epithelial cells (intrarenal inoculation) in NU/NU BALB/C (nude) mice
Conditions: endpoint: mean tumor weight change, schedule: Q04DX003 (ip), higher = larger tumour
Description: The antitumor activity of compounds was measured in mice bearing transplantable tumors. Survival or tumor size were measured and the results are expressed as the measurement made in the treated group (T) divided by the measurement made in the vehicle treated control group (C). The tumor model used in this assay is A549 Human Adenocarcinoma of Lung with characteristics of Type II Alveolar Epithelial cells (intrarenal inoculation) in NU/NU BALB/C (nude) mice

[1] = dose: 25.0 mg/kg/injection, vehicle: saline with Tween-80
[2] = dose: 50.0 mg/kg/injection, vehicle: saline with Tween-80

`COc1cc2c(c(OC)c1O)-c1ccc(OC)c(=O)cc1[C@@H](NC(=O)C(F)(F)F)CC2` was tested, and the T/C (dose: 5.0 mg/kg/injection, vehicle: Klucel (hydroxypropylcellulose) (HPC)) was 7 % of control, the T/C (dose: 7.2 mg/kg/injection, vehicle: Klucel (hydroxypropylcellulose) (HPC)) was 116 % of control and the T/C (dose: 10.0 mg/kg/injection, vehicle: Klucel (hydroxypropylcellulose) (HPC)) was 48 % of control. For the same compound, the T/C (dose: 12.0 mg/kg/injection, vehicle: Klucel (hydroxypropylcellulose) (HPC)) was 90 % of control.
In the case of `O=C(O)CCCc1ccc(N(CCCl)CCCl)cc1`, the T/C (dose: 0.13 mg/kg/injection, vehicle: Klucel (hydroxypropylcellulose) (HPC)) is reported as 93 % of control, the T/C (dose: 0.2 mg/kg/injection, vehicle: Klucel (hydroxypropylcellulose) (HPC)) is reported as 101 % of control and the T/C (dose: 0.3 mg/kg/injection, vehicle: Klucel (hydroxypropylcellulose) (HPC)) is reported as 169 % of control. The T/C (dose: 12.0 mg/kg/injection, vehicle: saline with Tween-80) was 118 % of control, the T/C (dose: 18.0 mg/kg/injection, vehicle: saline with Tween-80) was 64 % of control and the T/C (dose: 27.0 mg/kg/injection, vehicle: saline with Tween-80) was 15 % of control.
With `CCOC(=O)Nc1cc2c(c(N)n1)N=C(c1ccc3ccccc3c1)CN2` the T/C (dose: 7.5 mg/kg/injection, vehicle: saline with Tween-80) was 82 % of control, the T/C (dose: 15.0 mg/kg/injection, vehicle: saline with Tween-80) was 113 % of control and the T/C (dose: 30.0 mg/kg/injection, vehicle: saline with Tween-80) was 63 % of control. The T/C (dose: 60.0 mg/kg/injection, vehicle: saline with Tween-80) was 55 % of control.
With `CC(O)C1(O)C(O)CC(OC2c3cc4c(c(O)c3[C@@H]3C[C@@]2(C)OC32C=c3cc[nH]c3=N2)C(=O)c2cccc(O)c2C4=O)OC1C` (some centres undefined) the T/C [1] was 65 % of control and the T/C [2] was 55 % of control.
`Nc1ccc(S(=O)(=O)Nc2cnc3c(Cl)cccc3n2)cc1` was tested, and the T/C (dose: 220.0 mg/kg/injection, vehicle: saline) was 70 % of control, the T/C (dose: 315.0 mg/kg/injection, vehicle: saline) was 53 % of control and the T/C (dose: 450.0 mg/kg/injection, vehicle: saline) was 43 % of control. The T/C (dose: 642.9 mg/kg/injection, vehicle: saline) was 52 % of control.
With `O=C1CN(CCN2CC(=O)N(CN3CCOCC3)C(=O)C2)CC(=O)N1CN1CCOCC1` the T/C (dose: 37.5 mg/kg/injection, vehicle: saline with Tween-80) was 51 % of control and the T/C (dose: 75.0 mg/kg/injection, vehicle: saline with Tween-80) was 60 % of control.
For `c1ccc2c3c(c4c(c2c1)CN(C1CCCCC1)CO4)OCN(C1CCCCC1)C3`, the T/C (dose: 37.5 mg/kg/injection, vehicle: distilled water + Tween-80) was 65 % of control.
For `[CH3][Sn]([CH3])([Cl])[c]1cc[c]([Sn]([CH3])([CH3])[Cl])cc1`, the T/C (dose: 1.25 mg/kg/injection, vehicle: saline) was 84 % of control, the T/C (dose: 2.5 mg/kg/injection, vehicle: saline) was 160 % of control and the T/C (dose: 5.0 mg/kg/injection, vehicle: saline) was 70 % of control.
In the case of `O=C1C2CC(Cl)C(SSC3CC4C(=O)N(SC(Cl)(Cl)C(Cl)Cl)C(=O)C4CC3Cl)CC2C(=O)N1SC(Cl)(Cl)C(Cl)Cl` (centres undefined), the T/C [1] is reported as 123 % of control, the T/C [2] is reported as 78 % of control and the T/C (dose: 100.0 mg/kg/injection, vehicle: saline with Tween-80) is reported as 98 % of control. For the same compound, the T/C (dose: 200.0 mg/kg/injection, vehicle: saline with Tween-80) was 73 % of control.
With `Cc1ccc(/C=C/C(=O)/C=C/c2ccc(C)o2)o1` the T/C (dose: 100.0 mg/kg/injection, vehicle: DMSO) was 123 % of control, the T/C (dose: 200.0 mg/kg/injection, vehicle: DMSO) was 73 % of control and the T/C (dose: 400.0 mg/kg/injection, vehicle: DMSO) was 78 % of control. For the same compound, the T/C (dose: 800.0 mg/kg/injection, vehicle: DMSO) was 68 % of control.
